The values that follow come from paper PMC11975176 (Clinical Pharmacology in Drug Development, 2025).

The conditions of series [1]: cited from earlier work.
Series [2] is described as follows: NA (ETV, TFV) plasma PK (NCA) with coadministered bepirovirsen in the Phase 2b B-Clear study. It counts as in vivo. As to conditions: human, oral; for AUC(0-t): read-out: AUC0-24; for concentration at 24 h: B-Clear, mean ± SD, read-out: Ctau. The procedure:
NA plasma PK parameters were calculated using NCA methods with Phoenix WinNonlin Version 8.1.0.3530. PK parameters included Cmax, AUC from time zero to 24 hours after dosing, and plasma concentration at the end of the dosing interval. Calculations were based on the actual sampling times. PK samples in the B‐Clear study were assayed for bepirovirsen, ETV, and TFV in plasma at the bioanalytical facility Labcorp Drug Development, Shanghai, China, using validated liquid–liquid extraction for bepirovirsen, solid‐phase extraction for ETV, and protein precipitation for TFV assays followed by high‐performance liquid chromatography with mass spectrometric detection. All plasma samples were assayed within the established long‐term frozen, freeze/thaw, and processed extract stability.

Where two headings read alike, the source gives them in different places.

On to `C[C@H](Cn1cnc2c(N)ncnc21)OCP(=O)(O)O` [TFV, tenofovir], for which, in series [1] (after dosing), the tmax entry is “approximately 1 hour”. The AUC0-24 was 400 (35.2) ng•h/mL in series [1] (in vivo, 25 mg) and 2290 ± 690 ng·h/mL in series [1] (in vivo, 300 mg). Besides, the Cmax in series [1] (in vivo, 25 mg) is 30.0 (24.6) ng/mL; in series [2] (25 mg), 19.4 ± 5.9 ng/mL; in series [2] (300 mg) it was 319 ± 95.9 ng/mL. The AUC(0-t) in series [2] (25 mg) stood at 308 ± 105 ng·h/mL; in series [2] (300 mg) it was 2750 ± 661 ng·h/mL. In addition, the concentration at 24 h in series [2] (TFV administered as TAF 25 mg once daily with bepirovirsen) was 10.3 ± 3.5 ng/mL; in series [2] (TFV administered as TDF 245 or 300 mg once daily with bepirovirsen), 57 ± 17.1 ng/mL.
Regarding `C=C1[C@H](CO)[C@@H](O)C[C@@H]1n1cnc2c(=O)[nH]c(N)nc21` [ETV, entecavir], in series [1] (in vivo, 0.5 mg), the Cmax is reported as 4.2 ng/mL. Also, in series [1] (in vivo), the tmax entry was “approximately 1 hour”. Besides, in series [2] (0.5 mg), the Cmax was found to be 6.5 ± 2.3 ng/mL and the AUC(0-t) stood at 24.4 ± 6.8 ng·h/mL. Further, in series [2] (0.5 mg, ETV 0.5 mg once daily with bepirovirsen), the concentration at 24 h was found to be 0.5 ± 0.1 ng/mL.
